Patent US20120283304A1, “Formulations of Temozolomide for Parenteral Administration” (SAHAJ LIFE SCIENCES PVT. LTD., priority 2009, published 2012)
Where two headings read alike, the source gives them in different places.

What was measured:
[1] = Chemical parameters (assay and impurities) of the lyophilised formulations; assay type: physicochemical
Procedure: The formulations were analysed and the data is tabulated below: […]

[2] = cited from earlier work
[3] = cited from earlier work; remark: listed apart in the source

In the case of `Cn1nnc2c(C(N)=O)ncn2c1=O` [Temozolomide, 3-methyl-8-carbamoyl-imidazo[5,1-d]-1,2,3,5-tetrazin-4(3H)-one], the “% Assay” value [1] is reported as 100.3%, the “% Impurities AIC” value [1] is reported as 0.02% and the “% Impurities Any other maximum impurity” value [1] is reported as “Not detected”. The “% Impurities MTC-1” value [1] was “Not detected”, the “% Impurities Total impurities” value [1] was 0.04% and the Stability ([2]; acidic pH less than 5) was “stable”. The Stability ([2]; pH greater than 7) was “unstable” and the Solubility in water [3] was “only slightly soluble”.
